Data taken from US10065945B2, “Isoquinoline derivatives as MGAT2 inhibitors” (Merck Sharp & Dohme Corp., priority 2014, dated 2018).

molecular target: MGAT2 Human (Homo sapiens (Human), UniProt Q3SYC2); experiment: MGAT2 Human IC50; assay type: biochemical
Sequence (Q3SYC2 whole entry): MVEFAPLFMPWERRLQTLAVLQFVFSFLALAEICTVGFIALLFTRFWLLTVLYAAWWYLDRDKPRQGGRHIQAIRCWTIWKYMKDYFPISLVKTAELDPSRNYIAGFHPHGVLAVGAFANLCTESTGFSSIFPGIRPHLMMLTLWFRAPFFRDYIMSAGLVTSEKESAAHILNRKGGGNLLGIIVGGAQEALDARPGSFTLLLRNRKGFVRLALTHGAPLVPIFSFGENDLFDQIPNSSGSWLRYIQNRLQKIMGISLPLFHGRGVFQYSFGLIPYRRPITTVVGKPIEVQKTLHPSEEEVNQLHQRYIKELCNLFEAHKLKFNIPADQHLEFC

SMILES	IC50 [nM]
C[C@H](c1cccc(Cl)c1)N1CCc2ccc(S(=O)(=O)Nc3cc(C(C)(C)C)on3)cc2C1 [Example 1, (R)—N-(5-(tert-butyl)isoxazol-3-yl)-2-(1-(3-chlorophenyl)ethyl)-1,2,3,4-tetrahydroisoquinoline-7-sulfonamide]	9
C[C@H](c1cc(F)cc(F)c1F)N1CCc2ccc(S(=O)(=O)Nc3cc(C(C)(C)C)on3)cc2C1 [Example 2, (R)—N-(5-(tert-butyl)isoxazol-3-yl)-2-(1-(2,3,5-trifluorophenyl)ethyl)-1,2,3,4-tetrahydroisoquinoline-7-sulfonamide]	6
C[C@H](c1ccccc1)N1CCc2ccc(S(=O)(=O)Nc3cc(C(C)(C)C)on3)cc2C1 [Example 3, (R)—N-(5-(tert-butyl)isoxazol-3-yl)-2-(1-phenylethyl)-1,2,3,4-tetrahydroisoquinoline-7-sulfonamide]	9
CCSc1ncc([C@@H](C)N2CCc3ccc(S(=O)(=O)Nc4cc(C(C)(C)C)on4)cc3C2)cn1 [Example 4, (R)—N-(5-(tert-butyl)isoxazol-3-yl)-2-(1-(2-(ethylthio)pyrimidin-5-yl)ethyl)-1,2,3,4-tetrahydroisoquinoline-7-sulfonamide]	11
C[C@H](c1ccc(OCC(F)(F)F)nc1)N1CCc2ccc(S(=O)(=O)Nc3noc(-c4ccccc4)n3)cc2C1 [Example 6]	9.2
CCc1noc(NS(=O)(=O)c2ccc3c(c2)CN([C@H](C)c2ccc(OCC(F)(F)F)nc2)CC3)n1 [Example 7]	8.1
CC(C)c1nc(NS(=O)(=O)c2ccc3c(c2)CN([C@H](C)c2ccc(OCC(F)(F)F)nc2)CC3)no1 [Example 8]	13
C[C@H](c1cnc(OCC(F)(F)F)nc1)N1CCc2ccc(S(=O)(=O)Nc3noc(C(C)(C)C)c3-c3cccc(F)c3)cc2C1 [Example 11, (R)—N-(5-(tert-butyl)-4-(3-fluorophenyl)isoxazol-3-yl)-2-(1-(2-(2,2,2-trifluoroethoxy)pyrimidin-5-yl)ethyl)-1,2,3,4-tetrahydroisoquinoline-7-sulfonamide]	20
C[C@H](c1cnc(OCC(F)(F)F)nc1)N1CCc2ccc(S(=O)(=O)Nc3cc(C(C)(C)C)on3)cc2C1 [Example 12, (R)—N-(5-(tert-butyl)isoxazol-3-yl)-2-(1-(2-(2,2,2-trifluoroethoxy)pyrimidin-5-yl)ethyl)-1,2,3,4-tetrahydroisoquinoline-7-sulfonamide]	14
Cc1onc(NS(=O)(=O)c2ccc3c(c2)CN([C@H](C)c2ccc(OCC(F)(F)F)nc2)CC3)c1-c1cnn(C)c1 [Example 17, (R)—N-(5-methyl-4-(1-methyl-1H-pyrazol-4-yl)isoxazol-3-yl)-2-(1-(6-(2,2,2-trifluoroethoxy)pyridin-3-yl)ethyl)-1,2,3,4-tetrahydroisoquinoline-7-sulfonamide]	24
C[C@H](c1ccc(OCC(F)F)nc1)N1CCc2ccc(S(=O)(=O)Nc3cc(C(C)(C)C)on3)cc2C1 [Example 22]	6.4
C[C@H](c1ccc(OCC(F)F)nc1)N1CCc2ccc(S(=O)(=O)Nc3noc(C4CC4)n3)cc2C1 [Example 23, (R)-5-cyclopropyl-3-(2-(1-(6-(2,2-difluoroethoxy)pyridin-3-yl)ethyl)-1,2,3,4-tetrahydroisoquinoline-7-sulfonamido)-1,2,4-oxadiazol-2-ium 2,2,2-trifluoroacetate]	8.2
C[C@H](c1cnc(OCC(F)F)cn1)N1CCc2ccc(S(=O)(=O)Nc3noc(C4CC4)n3)cc2C1 [Example 24, (R)-5-cyclopropyl-3-(2-(1-(5-(2,2-difluoroethoxy)pyrazin-2-yl)ethyl)-1,2,3,4-tetrahydroisoquinoline-7-sulfonamido)-1,2,4-oxadiazol-2-ium 2,2,2-trifluoroacetate]	19.7
C[C@H](c1ccc(OCC2CC(F)(F)C2)nc1)N1CCc2ccc(S(=O)(=O)Nc3noc(C4CC4)n3)cc2C1 [Example 26, (R)-5-cyclopropyl-3-(2-(1-(6-((3,3-difluorocyclobutyl)methoxy)pyridin-3-yl)ethyl)-1,2,3,4-tetrahydroisoquinoline-7-sulfonamido)-1,2,4-oxadiazol-2-ium 2,2,2-trifluoroacetate]	20

Next, values leading:

IC50 [nM]	SMILES
4.5	Cc1c(NS(=O)(=O)c2ccc3c(c2)CN([C@H](C)c2ccc(OCC(F)(F)F)nc2)CC3)noc1C(C)(C)C [Example 5, (R)—N-(5-(tert-butyl)-4-methylisoxazol-3-yl)-2-(1-(6-(2,2,2-trifluoroethoxy)pyridin-3-yl)ethyl)-1,2,3,4-tetrahydroisoquinoline-7-sulfonamide]
11	C[C@H](c1ccc(OCC(F)(F)F)nc1)N1CCc2ccc(S(=O)(=O)Nc3cc(C(C)(C)C)on3)cc2C1 [Example 9, (R)—N-(5-(tert-butyl)isoxazol-3-yl)-2-(1-(6-(2,2,2-trifluoroethoxy)pyridin-3-yl)ethyl)-1,2,3,4-tetrahydroisoquinoline-7-sulfonamide]
17	C[C@H](c1cnc(OCC(F)(F)F)nc1)N1CCc2ccc(S(=O)(=O)Nc3noc(C(C)(C)C)c3Br)cc2C1 [Example 10, (R)—N-(4-bromo-5-(tert-butyl)isoxazol-3-yl)-2-(1-(2-(2,2,2-trifluoroethoxy)pyrimidin-5-yl)ethyl)-1,2,3,4-tetrahydroisoquinoline-7-sulfonamide]
16	C[C@H](c1ccc(OCC(F)(F)F)nc1)N1CCc2ccc(S(=O)(=O)Nc3noc(C(C)(C)C)c3Cl)cc2C1 [Example 13, (R)—N-(5-(tert-butyl)-4-chloroisoxazol-3-yl)-2-(1-(6-(2,2,2-trifluoroethoxy)pyridin-3-yl)ethyl)-1,2,3,4-tetrahydroisoquinoline-7-sulfonamide]
3.1	Cc1c(NS(=O)(=O)c2ccc3c(c2)CN([C@H](C)c2cnc(OCC(F)(F)F)cn2)CC3)noc1C(C)(C)C [Example 14, (R)—N-(5-(tert-butyl)-4-methylisoxazol-3-yl)-2-(1-(5-(2,2,2-trifluoroethoxy)pyrazin-2-yl)ethyl)-1,2,3,4-tetrahydroisoquinoline-7-sulfonamide]
11	Cc1c(NS(=O)(=O)c2ccc3c(c2)CN(Cc2ccc(OCC(F)(F)F)nc2)CC3)noc1C(C)(C)C [Example 15, N-(5-(tert-butyl)-4-methylisoxazol-3-yl)-2-((6-(2,2,2-trifluoroethoxy)pyridin-3-yl)methyl)-1,2,3,4-tetrahydroisoquinoline-7-sulfonamide]
16	CC(C)(C)c1onc(NS(=O)(=O)c2ccc3c(c2)CN(Cc2ccc(OCC(F)(F)F)nc2)CC3)c1F [Example 16, N-(5-(tert-butyl)-4-fluoroisoxazol-3-yl)-2-((6-(2,2,2-trifluoroethoxy)pyridin-3-yl)methyl)-1,2,3,4-tetrahydroisoquinoline-7-sulfonamide]
23	C[C@H](c1ccc(OCC(F)(F)F)nc1)N1CCc2ccc(S(=O)(=O)Nc3cc(C(C)(C)O)on3)cc2C1 [Example 18, (R)—N-(5-(2-hydroxypropan-2-yl)isoxazol-3-yl)-2-(1-(6-(2,2,2-trifluoroethoxy)pyridin-3-yl)ethyl)-1,2,3,4-tetrahydroisoquinoline-7-sulfonamide]
18	C[C@H](c1ccc(OCC(F)(F)F)nc1)N1CCc2ccc(S(=O)(=O)Nc3cc(C(C)(C)F)on3)cc2C1 [Example 19, (R)—N-(5-(2-fluoropropan-2-yl)isoxazol-3-yl)-2-(1-(6-(2,2,2-trifluoroethoxy)pyridin-3-yl)ethyl)-1,2,3,4-tetrahydroisoquinoline-7-sulfonamide]
5.8	Cc1c(NS(=O)(=O)c2ccc3c(c2)CN(Cc2cnc(SCC(F)(F)F)nc2)CC3)noc1C(C)(C)C [Example 20, N-(5-(tert-butyl)-4-methylisoxazol-3-yl)-2-((2-((2,2,2-trifluoroethyl)thio)pyrimidin-5-yl)methyl)-1,2,3,4-tetrahydroisoquinoline-7-sulfonamide]
3.9	C/C=C/c1c(NS(=O)(=O)c2ccc3c(c2)CN(Cc2cnc(OCC(F)(F)F)s2)CC3)noc1C(C)(C)C [Example 21, (E)-N-(5-(tert-butyl)-4-(prop-1-en-1-yl)isoxazol-3-yl)-2-((2-(2,2,2-trifluoroethoxy)thiazol-5-yl)methyl)-1,2,3,4-tetrahydroisoquinoline-7-sulfonamide]
4.6	Cc1c(NS(=O)(=O)c2ccc3c(c2)CN([C@H](C)c2cnc(OCC(F)F)cn2)CC3)noc1C(C)(C)C [Example 25, 7-(N-(5-(tert-butyl)-4-methylisoxazol-3-yl)sulfamoyl)-2-((R)-1-(5-(2,2-difluoroethoxy)pyrazin-2-yl)ethyl)-1,2,3,4-tetrahydroisoquinolin-2-ium 2,2,2-trifluoroacetate]
41	Cc1c(NS(=O)(=O)c2ccc3c(c2)CN(C(=O)c2ccc(OCC(F)(F)F)nc2)CC3)noc1C(C)(C)C [Example 27, N-(5-(tert-butyl)-4-methylisoxazol-3-yl)-2-(6-(2,2,2-trifluoroethoxy)nicotinoyl)-1,2,3,4-tetrahydroisoquinoline-7-sulfonamide]
8.5	Cc1c(NS(=O)(=O)c2ccc3c(c2)CN([C@H](C)c2ccc(OCC4CC(F)(F)C4)nc2)CC3)noc1C(C)(C)C [Example 28, 7-(N-(5-(tert-butyl)-4-methylisoxazol-3-yl)sulfamoyl)-2-((R)-1-(6-((3,3-difluorocyclobutyl)methoxy)pyridin-3-yl)ethyl)-1,2,3,4-tetrahydroisoquinolin-2-ium 2,2,2-trifluoroacetate]
9.5	Cc1c(NS(=O)(=O)c2ccc3c(c2)CN([C@H](C)c2ccc(OCC(F)(F)F)cc2)CC3)noc1C(C)(C)C [Example 29, 7-(N-(5-(tert-butyl)-4-methylisoxazol-3-yl)sulfamoyl)-2-((R)-1-(4-(2,2,2-trifluoroethoxy)phenyl)ethyl)-1,2,3,4-tetrahydroisoquinolin-2-ium 2,2,2-trifluoroacetate]
31	COCCOc1ccc(C(=O)N2CCc3ccc(S(=O)(=O)Nc4noc(C(C)(C)C)c4C)cc3C2)cn1 [Example 30, N-(5-(tert-butyl)-4-methylisoxazol-3-yl)-2-(6-(2-methoxyethoxy)nicotinoyl)-1,2,3,4-tetrahydroisoquinoline-7-sulfonamide]
